This passage reports IC50 and Activity results from ChEMBL document CHEMBL3822366, “Design, synthesis and anticancer activity of novel hybrid compounds between benzofuran and N-aryl piperazine” (Bioorg Med Chem Lett, 2016).

Data set [1] deals with MCF7. As to the kind of experiment: Cytotoxicity against human MCF7 cells after 48 hrs by MTT assay. Type of data set: functional, cell-based. The settings on record: MCF7, 48 h.
A short description of data set [2]: Cytotoxicity against human SGC7901 cells after 48 hrs by MTT assay. Type of data set: functional, cell-based. The settings on record: SGC-7901, 48 h.
Data set [3] deals with A549. As to the kind of experiment: Cytotoxicity against human A549 cells after 48 hrs by MTT assay. To be noted: A549, 48 h. Type of data set: functional, cell-based.
For data set [4], the system named is HeLa. As to the kind of experiment: Cytotoxicity against human HeLa cells after 48 hrs by MTT assay. The format is functional, cell-based.
A short description of data set [5]: Cytotoxicity against human L02 cells at <40 uM after 48 hrs by MTT assay. The format is cell-based. The settings on record: l02, 48 h.

As for `CCN(CC)c1ccc2cc(C(=O)c3ccc(N4CCN(S(=O)(=O)c5ccc(F)cc5)CC4)cc3)oc2c1`, the IC50 was 21.7 µM in data set [1], over 40 µM in data set [2], 16.4 µM in data set [3] and 21.6 µM in data set [4].

On to `CCN(CC)c1ccc2cc(C(=O)c3ccc(N4CCN(C(=O)c5ccccc5)CC4)cc3)oc2c1`, for which the half-inhibitory concentration (IC50) in data set [1] was over 40 µM; in data set [2], over 40 µM; in data set [3], over 40 µM; in data set [4], 15.2 µM.

As to `CCN(CC)c1ccc2cc(C(=O)c3ccc(N4CCN(C(C)=O)CC4)cc3)oc2c1`, the IC50 in data set [1] was determined as 16.2 µM; in data set [2], 25.6 µM; in data set [3], 30.1 µM; in data set [4], 5.15 µM.

Consider `CCN(CC)c1ccc2cc(C(=O)c3ccc(N4CCN(S(=O)(=O)c5ccc([N+](=O)[O-])cc5)CC4)cc3)oc2c1`, for which the IC50 in data set [1] is over 40 µM; in data set [2], 1.86 µM; in data set [3] it was 24.4 µM; in data set [4], over 40 µM.

Consider `CCN(CC)c1ccc2cc(C(=O)c3ccc(N4CCN(S(=O)(=O)c5ccc(C(F)(F)F)cc5)CC4)cc3)oc2c1`, for which the IC50 is over 40 µM in data set [1], 0.17 µM in data set [2], 11.1 µM in data set [3] and 9.72 µM in data set [4].

For the compound `CCN(CC)c1ccc2cc(C(=O)c3ccc(N4CCN(C(=O)c5ccccc5Cl)CC4)cc3)oc2c1`, the IC50 was determined as 26.3 µM in data set [1], 12 µM in data set [2], 6.11 µM in data set [3] and 0.34 µM in data set [4].

Turning to `CCN(CC)c1ccc2cc(C(=O)c3ccc(N4CCN(S(=O)(=O)c5ccc(C)cc5)CC4)cc3)oc2c1`, the IC50 is over 40 µM in data set [1], over 40 µM in data set [2], over 40 µM in data set [3] and 37.8 µM in data set [4].

For `CCN(CC)c1ccc2cc(C(=O)c3ccc(N4CCN(S(=O)(=O)c5ccc(Br)c(F)c5)CC4)cc3)oc2c1`, the IC50 in data set [1] is 2.27 µM; in data set [2] it was over 40 µM; in data set [3], 15.1 µM; in data set [4] it was 20.7 µM.

Turning to `CCN(CC)c1ccc2cc(C(=O)c3ccc(N4CCN(C(=O)c5ccc([N+](=O)[O-])c([N+](=O)[O-])c5)CC4)cc3)oc2c1`, the IC50 was 19.6 µM in data set [1], over 40 µM in data set [2], over 40 µM in data set [3] and 25.2 µM in data set [4].

In the case of `CCN(CC)c1ccc2cc(C(=O)c3ccc(N4CCN(C(=O)c5ccc(Cl)c(Cl)c5)CC4)cc3)oc2c1`, the IC50 worked out at 8.08 µM in data set [1], 5.84 µM in data set [2], 0.22 µM in data set [3] and 15.2 µM in data set [4].

In the case of `CCN(CC)c1ccc2cc(C(=O)c3ccc(N4CCN(C(=O)c5ccc(Br)cc5F)CC4)cc3)oc2c1`, the IC50 in data set [1] was over 40 µM; in data set [2] it was 13.5 µM; in data set [3], 20.4 µM; in data set [4], 0.53 µM.

For `CCOC(=O)N1CCN(c2ccc(C(=O)c3cc4ccc(N(CC)CC)cc4o3)cc2)CC1`, the IC50 was over 40 µM in data set [1], over 40 µM in data set [2], over 40 µM in data set [3] and 20.3 µM in data set [4].

Take `CCN(CC)c1ccc2cc(C(=O)c3ccc(N4CCN(S(C)(=O)=O)CC4)cc3)oc2c1`: the IC50 in data set [1], in data set [2], in data set [3] and in data set [4] was over 40 µM throughout.

In the case of `CCN(CC)c1ccc2cc(C(=O)c3ccc(N4CCN(C(=O)c5cccc(C(F)(F)F)c5)CC4)cc3)oc2c1`, the IC50 in data set [1] stood at 34.1 µM; in data set [2] it was 11.3 µM; in data set [3], 9.27 µM; in data set [4], 0.4 µM.

On to `CCN(CC)c1ccc2cc(C(=O)c3ccc(N4CCN(S(=O)(=O)c5ccc(Br)cc5)CC4)cc3)oc2c1`, for which the IC50 in data set [1] was 26.1 µM; in data set [2], over 40 µM; in data set [3], 34.3 µM; in data set [4] it was over 40 µM.

Regarding `CCN(CC)c1ccc2cc(C(=O)c3ccc(N4CCN(C(=O)COc5ccc(Cl)cc5Cl)CC4)cc3)oc2c1`, the IC50 in data set [1] amounted to 12.4 µM; in data set [2], 6.17 µM; in data set [3] it was 5.73 µM; in data set [4], 0.03 µM. Further, the Activity result in data set [5] is reported as “Non-toxic”.
